Read-outs that look alike come from different tables or passages of the source. Values belong to the molecule of their own block, whether it stands above or below them.
Experiments:
GlyRα1^Q177Nβ = GlyRα1^Q177Nβ (UniProt P48167+Q64018, Q205N); assay: whole-cell patch clamp recordings of transfected HEK293 cells
GlyRα1β WT = target: T1, GlyRα1β WT (UniProt P48167+Q64018); assay: as above; assay type: cell-based, murine
T1 construct: expressed in transfected cells; host or cells: HEK293
Method: (§1) Media were exchanged after 6–24 h.
(§2) All experiments were performed at room temperature.

GlyRα1^Q177Rβ = GlyRα1^Q177Rβ (UniProt P48167+Q64018, Q205R); assay: as above
Method: (§3) HEK293 cells were transiently transfected using a modified calcium phosphate precipitation method. A mixture of plasmid DNA, CaCl2, 0.1x TE buffer and 2x HBS (50 mM HEPES, 12 mM glucose, 10 mM KCl, 280 mM NaCl, 1.5 mM Na2HPO4) was applied onto the cells. A GlyRα1 to GlyRβ ratio of 1:2 was used for co-expression. For GlyRα1:GlyRβ:GFP co-expression, a ratio of 1:2:1 was transfected. The same amount of DNA was used for GlyRα1 WT and mutants. Media were exchanged after 6–24 h. Immunocytochemical stainings and electrophysiological experiments were always done 24 h after transfection, biotinylation experiments were performed 48 h after transfection.
(§4) The patch clamp technique was used to measure current amplitudes (I) of transfected HEK293 cells. Currents were amplified using an EPC-9 amplifier and the software Patchmaster (HEKA, Lambrecht, Germany). Cells were patched 24 h after transfection in a whole-cell configuration mode. […] All agonist and antagonists were applied using an Octaflow II system (ALA Scientific Instruments, Farmingdale, NY, United States). The extracellular buffer consisted of (in mM): 137 NaCl, 5.4 KCl, 1.8 CaCl2, 1 MgCl2, 5 HEPES, pH adjusted to 7.4 with NaOH. The intracellular buffer contained (in mM): 120 CsCl, 20 N(Et)4Cl, 1 CaCl2, 2 MgCl2, 11 EGTA, 10 HEPES, pH adjusted to 7.2 with CsOH. Recording pipettes with an open resistance of 4–6 MΩ were manufactured from borosilicate capillaries using a P97 horizontal puller (Sutter Instrument, Novato, CA, United States). Cells were held at -60 mV and fast capacitances were in range of 11–13 pF. All experiments were performed at room temperature.
(§5) The following Hill equation was used: I = Imax ^∗ c^nHill/(c^nHill + EC50^nHill). I refers to the current amplitude at the given agonist concentration c, Imax is the current amplitude at a saturating agonist, EC50 refers to the agonist concentration evoking half-maximal current responses and nHill is the Hill coefficient.

GlyRα1^Q177Aβ = GlyRα1^Q177Aβ (UniProt P48167+Q64018, Q205A); assay: as above
Method: as §3, §4, §5

GlyRα1^Q177Gβ = GlyRα1^Q177Gβ (UniProt P48167+Q64018, Q205G); assay: as above
Method: as §3, §4, §5

GlyRα1^Q177Dβ = GlyRα1^Q177Dβ (UniProt P48167+Q64018, Q205D); assay: as above
Method: as §3, §4, §5

[1] = test system: GlyR R65 mutated to lysine; settings: ref Grudzinska et al., 2005; cited from earlier work
GlyRα1^Q177β variants = settings: saturating glycine (1 mM); HEK293, whole-cell
Method: as §1, §2

GlyRα1^Q177Wβ = GlyRα1^Q177Wβ (UniProt P48167+Q64018, Q205W); assay: whole-cell patch clamp recordings of transfected HEK293 cells
Method: as §3, §4, §5

GlyRα1^Q177Eβ = GlyRα1^Q177Eβ (UniProt P48167+Q64018, Q205E); assay: as above
Method: as §3, §4, §5

GlyRα1^Q177K = settings: shaky mouse; ref Schaefer et al., 2017; cited from earlier work
GlyRα1^Q177Cβ = GlyRα1^Q177Cβ (UniProt P48167+Q64018, Q205C); assay: whole-cell patch clamp recordings of transfected HEK293 cells
Method: as §3, §4, §5

[2] = test system: GlyR R65 mutated to alanine; settings: ref Grudzinska et al., 2005; cited from earlier work
GlyRα1^Q177Kβ = GlyRα1^Q177Kβ (UniProt P48167+Q64018, Q205K); assay: whole-cell patch clamp recordings of transfected HEK293 cells
Method: as §3, §4, §5

[3] = 100 μM β-alanine, HEK293, whole-cell
[4] = Hill coefficient of β-alanine concentration-response curve
[5] = saturating 10 mM β-alanine, HEK293, whole-cell
[6] = 100 μM taurine, HEK293, whole-cell
[7] = 10 mM taurine, HEK293, whole-cell, mutant probably not completely saturated
[8] = Hill coefficient of taurine concentration-response curve
[9] = 100 μM glycine, HEK293, co-expressed with GlyRβ, whole-cell
[10] = Hill coefficient of glycine concentration-response curve
[11] = read-out: EC50 glycine, HEK293, α1:β 1:2, whole-cell currents, 1–3000 μM glycine

EC50 (GlyRα1^Q177Nβ): 203 ± 17 µM
agonist-induced inward current at 100 μM β-alanine (GlyRα1^Q177Nβ; [3]): 0.87 ± 0.4 nA
nH β-alanine (GlyRα1^Q177Nβ; [4]): 1.7
absolute current amplitude at 10 mM β-alanine (GlyRα1^Q177Nβ; [5]): 4.1 ± 0.8 nA
agonist-induced inward current at 100 μM β-alanine (GlyRα1β WT; [3]): 1.3 ± 0.3 nA
EC50 (GlyRα1β WT; HEK293, co-expressed with GlyRβ, whole-cell, 3–10000 μM β-alanine, read-out: EC50 β-alanine): 157 ± 7 µM
nH β-alanine (GlyRα1β WT; [4]): 2.6
absolute current amplitude at 10 mM β-alanine (GlyRα1β WT; [5]): 5.3 ± 2 nA
EC50 (GlyRα1^Q177Rβ): 359 ± 19 µM
agonist-induced inward current at 100 μM β-alanine (GlyRα1^Q177Rβ; [3]): 0.2 ± 0.07 nA
nH β-alanine (GlyRα1^Q177Rβ; [4]): 1.9
absolute current amplitude at 10 mM β-alanine (GlyRα1^Q177Rβ; [5]): 4.5 ± 0.9 nA
Structure (SMILES): NCCC(=O)O [β-alanine]

agonist-induced inward current at 100 μM taurine (GlyRα1^Q177Nβ; [6]): 0.02 ± 0.001 nA
absolute current amplitude at 10 mM taurine (efficacy) (GlyRα1^Q177Nβ; [7]): 2.7 ± 0.5 nA
nH taurine (GlyRα1^Q177Nβ; [8]): 1.6
increase of the EC50 for taurine compared to GlyRα1β WT (GlyRα1^Q177Nβ; human, hek293 cells): 2.1 fold
agonist-induced inward current at 100 μM taurine (GlyRα1β WT; [6]): 0.13 ± 0.06 nA
absolute current amplitude at 10 mM taurine (efficacy) (GlyRα1β WT; 10 mM taurine, HEK293, whole-cell): 5.7 ± 0.4 nA
EC50 (GlyRα1β WT; HEK293, co-expressed with GlyRβ, whole-cell, 3–10000 μM taurine, read-out: EC50 taurine): 593 ± 18 µM
nH taurine (GlyRα1β WT; [8]): 2.3
agonist-induced inward current at 100 μM taurine (GlyRα1^Q177Rβ; [6]): 0 ± 0 nA
absolute current amplitude at 10 mM taurine (efficacy) (GlyRα1^Q177Rβ; [7]): 3.1 ± 0.4 nA
nH taurine (GlyRα1^Q177Rβ; [8]): 1.5
increase of the EC50 for taurine compared to GlyRα1β WT (GlyRα1^Q177Rβ; human, hek293 cells): 5 fold
Structure (SMILES): NCCS(=O)(=O)O [taurine]

Structure (SMILES): NCC(=O)O [glycine]
increase in glycine EC50 compared to GlyRα1β WT (GlyRα1^Q177Aβ): 3.6 fold
Mean Igly 100 μM ± SEM (GlyRα1^Q177Aβ; [9]): 0.8 ± 0.3 nA
nH glycine (GlyRα1^Q177Aβ; [10]): 2.0
EC50 (GlyRα1^Q177Aβ; [11]): 208 ± 22 µM
increase in glycine EC50 compared to GlyRα1β WT (GlyRα1^Q177Gβ): 4.5 fold
Mean Igly 100 μM ± SEM (GlyRα1^Q177Gβ; [9]): 0.3 ± 0.08 nA
nH glycine (GlyRα1^Q177Gβ; [10]): 2.5
EC50 (GlyRα1^Q177Gβ; [11]): 262 ± 13 µM
increase in glycine EC50 compared to GlyRα1β WT (GlyRα1^Q177Nβ): 1.6 fold
Mean Igly 100 μM ± SEM (GlyRα1^Q177Nβ; [9]): 1.2 ± 0.2 nA
nH glycine (GlyRα1^Q177Nβ; [10]): 3.0
increase in glycine EC50 compared to GlyRα1β WT (GlyRα1^Q177Dβ): 2.3 fold
Mean Igly 100 μM ± SEM (GlyRα1^Q177Dβ; [9]): 0.9 ± 0.3 nA
nH glycine (GlyRα1^Q177Dβ; [10]): 3.4
EC50 (GlyRα1^Q177Dβ; [11]): 137 ± 4 µM
Mean Igly 100 μM ± SEM (GlyRα1β WT; [9]): 3.8 ± 0.3 nA
nH glycine (GlyRα1β WT; [10]): 1.9
EC50 (GlyRα1β WT; [11]): 58 ± 4 µM
decrease in glycine EC50 [1]: 200 fold
Imax values in comparison to GlyRα1β WT (GlyRα1^Q177β variants): No significant differences
increase in glycine EC50 compared to GlyRα1β WT (GlyRα1^Q177Wβ): 2.2 fold
Mean Igly 100 μM ± SEM (GlyRα1^Q177Wβ; [9]): 1.8 ± 0.3 nA
nH glycine (GlyRα1^Q177Wβ; [10]): 3.7
EC50 (GlyRα1^Q177Wβ; [11]): 130 ± 12 µM
increase in glycine EC50 compared to GlyRα1β WT (GlyRα1^Q177Eβ): 1.8 fold
Mean Igly 100 μM ± SEM (GlyRα1^Q177Eβ; [9]): 1.6 ± 0.2 nA
nH glycine (GlyRα1^Q177Eβ; [10]): 2.6
binding to the mutated receptor compared to GlyRα1 WT (GlyRα1^Q177K): bound with the same efficiency
increase in glycine EC50 compared to GlyRα1β WT (GlyRα1^Q177Cβ): 1.5 fold
Mean Igly 100 μM ± SEM (GlyRα1^Q177Cβ; [9]): 1.8 ± 0.3 nA
nH glycine (GlyRα1^Q177Cβ; [10]): 2.1
decrease in glycine EC50 [2]: 1250 fold
increase in glycine EC50 compared to GlyRα1β WT (GlyRα1^Q177Kβ): 5.3 fold
Mean Igly 100 μM ± SEM (GlyRα1^Q177Kβ; [9]): 0.6 ± 0.07^∗∗∗ nA
nH glycine (GlyRα1^Q177Kβ; [10]): 2.2
EC50 (GlyRα1^Q177Kβ; [11]): 312 ± 7 µM
increase in glycine EC50 compared to GlyRα1β WT (GlyRα1^Q177Rβ): 4 fold
Mean Igly 100 μM ± SEM (GlyRα1^Q177Rβ; [9]): 0.8 ± 0.07 nA
nH glycine (GlyRα1^Q177Rβ; [10]): 2.0
EC50 (GlyRα1^Q177Rβ; [11]): 231 ± 4 µM

Structure (SMILES): O=C1C[C@@H]2OCC=C3CN4CC[C@]56c7ccccc7N1[C@H]5[C@H]2[C@H]3C[C@H]46 [strychnine]
binding to the mutated receptor compared to GlyRα1 WT (GlyRα1^Q177K): bound with the same efficiency
